Assay results as given in patent US7045495B2 (Sloan-Kettering Institute for Cancer Research, priority 1996, dated 2006).
Values joined by “and” are separate entries in the source; they are usually repeats but may differ in a detail not shown here. Equal values may be shown once.

Legend:
[1] = test system: SK-GT-5 cells; experiment: apoptosis by quantitative fluorescent microscopy (QFM), Hoechst-33258 staining; type: cell-based, human; conditions: for percentage of cells undergoing apoptosis (QFM): FIG. 4: safingol 50 μM and/or PMA 1 ng/ml for 1 hour, then MMC 5 μg/ml or no drug 24 hours, MMC alone 24 hours
Procedure: (§1) Apoptosis was measured by two different methods: (i) Quantitative fluorescent microscopy (QFM) of nuclear changes induced by apoptosis, as determined by bisbenzimide trihydrochloride (Hoescht-33258) staining of nuclear chromatin (15), and (ii) a terminal deoxynucleotidyl transferase (TdT) assay that labels the 3′-OH ends of DNA fragments produced in apoptotic cells (16). […] MMC was diluted in water. A stock safingol solution was constituted in DMSO and was subsequently diluted at least 1:100 in media for all experiments. […] For QFM determinations, the cells were fixed in 3% paraformaldehyde and incubated at room temperature for 10 minutes. The fixative was removed and the cells were washed with 1×PBS, resuspended in 20 μl 1×PBS containing only 8 μg/ml of bisbenzimide trihydrochloride (Hoechst #33258), and incubated at room temperature for 15 minutes. Aliquots of the cells (10 μl) were placed on glass slides coated with 3-amino-propyl-triethoxysilane, and duplicate samples of 500 cells each were counted and scored for the incidence of apoptotic chromatin condensation using an Olympus BH-2 fluorescence microscope equipped with a BH2-DM2U2UV Dich. Mirror Cube filter (Olympus, Lake Success, N.Y.). For the TdT assays, the ApopTag Kit (Oncor, Gaithersburg, Md.) was used. This method employs a fluoresceinated antidigoxigenin antibody directed against nucleotides of digoxigenin-11-dUTP (d-dUTP) which are catalytically added to the 3-ends fragmented DNA by TdT. Briefly, 1–2×10^6 cells were washed and fixed with 1% paraformaldehyde. The fixed cells were incubated in a reaction mixture containing TdT and d-dUTP for 30 minutes at 37° C. Stop/wash buffer was added, and the cells were resuspended in 100 μl of fluorescinated anti-digoxigenin antibody for 30 minutes at room temperature. The cells were then washed with 0.1% Triton X-100 and counterstained with propidium iodide (PI) solution. Green (d-dUTP labeled DNA strand breaks) and red (PI staining for total DNA content) fluorescence of individual cells were measured on a FACScan flow cytometer (Becton Dickinson, San Jose, Calif.). The resulting bivariate plots enabled the detection of apoptotic events within the cell cycle. The R1 cursor was set using the control specimen to define normal levels of green fluorescence (i.e., basal levels of apoptosis). Cells with fluorescence above the R, cursor were considered apoptotic. The data from 10,000 cells were collected and analyzed using CellFit and LYSYS software (Becton Dickinson).
For the QFM duplicate samples of 500 cells each were counted and scored for the incidence of apoptotic chromatin condensation using an Olympus BH-2 fluorescence microscope.

[2] = test system: MKN-74 cells; experiment: apoptosis by QFM, Hoechst-33258 staining; type: cell-based, human
Procedure: as §1
Apoptosis was again measured by QFM staining.
(§2) Induction of apoptosis was estimated by counting the frequency of condensed nuclear chromatin with Hoechst-33258 stain in duplicate samples of 400 cells.
For these studies apoptosis was measured by quantitative fluorescent microscopy (QFM) determination with bisbenzimide trihydrochloride stain (Hoescht-33258) for condensed nuclear chromatin characteristic of apoptotic cells.
For QFM determinations 500 cells were counted and scored for the incidence of apoptotic chromatin changes under an Olympus BH-2 fluorescence microscope in duplicate samples, ±SD, using a BH2-DM2U2UV Dich. Mirror Cube filter.
To study this further applicants elected to examine five bis-indolylmaleimides with various potencies against PKC. […] The induction of apoptosis was estimated by counting the frequency of condensed nuclear chromatin with Hoechst-33258 stain in duplicate samples of 400 cells.

[3] = test system: MDA-MB-468 breast cancer cells; experiment: apoptosis by QFM, Hoechst-33258 staining; type: cell-based, human; conditions: for percentage of cells undergoing apoptosis (QFM): FIG. 9, safingol 50 μM
Procedure: PRELIMINARY STUDIES. […] Apoptosis was measured by quantitative fluorescent microscopy (QFM) of nuclear changes induced by apoptosis, as determined by bisbenzimide trihydrochloride (Hoescht-33258) staining of condensed nuclear chromatin (24). For the QFM duplicate samples of 500 cells each were counted and scored for the incidence of apoptotic chromatin condensation using an Olympus BH-2 fluorescence microscope.
Applicants also tested the PKC inhibitor UCN-01 (27) which is currently in phase I clinical trial at the NCI. In contrast to safingol, which inhibits PKC by binding to its regulatory domain, UCN-01 inhibits PKC at its catalytic domain. Therefore, assessment of the effect of UCN-01 on inducing apoptosis in combination with MMC on MDA-MB-468 was also performed. The QFM method to quantitate apoptosis was again used. The conditions tested were identical to those described above for safingol except UCN-01 (1 μM) was substituted for safingol in all the conditions.
as §2

[4] = test system: MKN-74 cells; experiment: TdT assay with flow cytometry; type: cell-based, human; conditions: 24 hours; safingol 50 μM, MMC 5 μg/ml
Procedure: Apoptosis was measured by two different methods: (i) Quantitative fluorescent microscopy (QFM) of nuclear changes induced by apoptosis, as determined by bisbenzimide trihydrochloride (Hoescht-33258) staining of nuclear chromatin (15), and (ii) a terminal deoxynucleotidyl transferase (TdT) assay that labels the 3′-OH ends of DNA fragments produced in apoptotic cells (16). […] MMC was diluted in water. A stock safingol solution was constituted in DMSO and was subsequently diluted at least 1:100 in media for all experiments. […] For QFM determinations, the cells were fixed in 3% paraformaldehyde and incubated at room temperature for 10 minutes. […] Aliquots of the cells (10 μl) were placed on glass slides coated with 3-amino-propyl-triethoxysilane, and duplicate samples of 500 cells each were counted and scored for the incidence of apoptotic chromatin condensation using an Olympus BH-2 fluorescence microscope equipped with a BH2-DM2U2UV Dich. […] Green (d-dUTP labeled DNA strand breaks) and red (PI staining for total DNA content) fluorescence of individual cells were measured on a FACScan flow cytometer (Becton Dickinson, San Jose, Calif.). […] The R1 cursor was set using the control specimen to define normal levels of green fluorescence (i.e., basal levels of apoptosis). Cells with fluorescence above the R, cursor were considered apoptotic. […]

[5] = test system: cdk2; experiment: cdk2 activity by histone type-I phosphorylation after immunoprecipitation from treated cells; type: cell-based, human; conditions: MKN-74 cells; 24 hours; MMC 5.0 μg/ml, safingol 50 μM; FIG. 8
Procedure: (ii) Safingol increases cdk2 activity only when co-administered with chemotherapy: For determination of cdk2 activity MKN-74 cells were treated according to the conditions shown to enhance chemotherapy induced apoptosis: (i) no drug (control) for 24 hours, (ii) Mitomycin-C alone (5.0 μg/ml) for 24 hours, (iii) Safingol alone (50 μM) for 24 hours, (iv) the combination of safingol (50 μM) and Mitomycin-C (MMC, 5.0 μg/ml) for 24 hours. Cdk2 activity was determined by histone type-I phosphorylation, as described (38). For these studies cdk2 was first immunoprecipitated from the cell lysates following treatment under these four conditions. The kinase reaction was allowed to proceed at 30° for 30 minutes in the presence of histone type-I and [^32P]ATP. For each sample a control sample was run under the same conditions, but IgG was used in place of […]. This allowed for detection on non-specific kinase activity which was then subtracted out from the cdk2 activity to determine the absolute radioactive incorporation attributable to cdk2. The samples were transferred to a 10% SDS PAGE gel for analysis. The autoradiographs were analyzed on a phosphoimager for determinations of relative cdk2 activity.

[6] = test system: gastric cancer cells (SK-GT cells); experiment: cell proliferation studies with [3H]-thymidine; type: cell-based, human
[7] = biological target: case in kinase; conditions: read-out: concentration for 50% inhibition of case in kinase; safingol; cited from earlier work

Structure (SMILES): CO[C@@]12[C@H](COC(N)=O)C3=C(C(=O)C(C)=C(N)C3=O)N1C[C@@H]1N[C@@H]12 [MMC, Mitomycin-C]
- percentage of cells undergoing apoptosis (QFM) [1]: 36%±4
- Percent Apoptosis ([2]; 24 h continuous (single drug) or concomitant, flavopiridol 300 nM, MMC 1 μg/ml, paclitaxel 50 μM, carboplatin): 7%±1%
- % APOPTOSIS ([2]; 24 hours, FLAVO 300 nM, Taxol 50 μM, MMC 1 μg/ml, single drugs or in combination): 7%
- percent induction of apoptosis, Concomitant ([2]; 24 hours, FLAVO 300 nM, Taxol 50 μM, MMC 1 μg/ml, single drugs or together): 7% ± 1%
- induction of apoptosis (condensed chromatin, 400 cells) ([2]; 24 hours, PKC inhibitor 1 to 4 μM, MMC 5 μg/ml): 10% ±2%
- percentage of cells undergoing apoptosis (QFM) ([2]; 24 hours, RO 32-0432 1 μM, MMC): 16%±2%
- induction of apoptosis (QFM) ([2]; 24 hours, safingol 50 μM, UCN-01 10 μM, MMC 5 μg/ml): 26%±5%
- induction of apoptosis (QFM) ([2]; FIG. 7, 24 hours, flavopiridol 300 nM, MMC 50 μM (as printed b127)): 7%±1%
- percentage of cells undergoing apoptosis (QFM) ([2]; MKN-74 (wild-type p53), 24 hours, safingol 50 μM, MMC 5 μg/ml): 40%
- induction of apoptosis (condensed chromatin, 400 cells) ([2]; MKN-74, 24 hours, Flavo 300 nM, MMC 5 μg/ml): 7% ± 1
- percent induction of apoptosis, 6hrs ([2]; Ro 2 μM, MMC 1 μg/ml): 1.0%
- percent induction of apoptosis, 12hrs ([2]; Ro 2 μM, MMC 1 μg/ml): 0.8%
- percent induction of apoptosis, 24hrs ([2]; Ro 2 μM, MMC 1 μg/ml): 5.8%
- percent induction of apoptosis, 48hrs ([2]; Ro 2 μM, MMC 1 μg/ml): 27%
- percent induction of apoptosis, 72hrs ([2]; Ro 2 μM, MMC 1 μg/ml): 30%
- percentage of cells undergoing apoptosis (QFM) ([3]; 24 hours, MMC 5.0 μg/ml): 6%±1
- percentage of cells undergoing apoptosis (QFM) ([3]; 24 hours, MMC […]): 4%±2
- induction of apoptosis (condensed chromatin, 400 cells) ([3]; MDA-MB-468, 24 hours, UCN-01 7.5 to 10 μM, MMC 5 μg/ml): 6% ± 1
- percentage of cells undergoing apoptosis ([3]; MDA-MB-468, flavopiridol, MMC): 10%±2%
- apoptotic cells: green fluorescence above R1 region (TdT assay) [4]: increased green fluorescence
- cdk2 activity [5]: decreased cdk2
- inhibition of cell proliferation ([6]; MMC 5 μg/ml): < 20% and 20%

Structure (SMILES): CCCCCCCCCCCCCCC[C@H](O)[C@@H](N)CO [safingol, L-threo-dihydrosphingosine]
- percentage of cells undergoing apoptosis (QFM) [1]: essentially no effect on inducing apoptosis
- potentiation of MMC-induced apoptotic response by addition of safingol ([1]; SK-GT-5): approximately 2 fold
- potentiation of MMC-induced apoptotic response by addition of safingol ([2]; MKN-74): approximately 2 fold
- percentage of cells undergoing apoptosis (QFM) ([3]; 24 hours, MMC 5.0 μg/ml): 11%±1
- apoptotic cells: green fluorescence above R1 region (TdT assay) [4]: essentially no apoptosis
- cdk2 activity [5]: decreased cdk2
- highest non-toxic dose (cell proliferation studies) ([6]; SK-GT / SK-GT-5 / gastric cancer cells, 24 hours): 50 µM
- IC50 [7]: > 218 µM
